# Patent US5877320A, “Process for the preparation of organotin compounds useful as cytotoxic agents” (priority 1995, dated 1999)
# Experiments:
# [1] = tested on: IGROV; assay: In-vitro cytotoxicity [ID50] against IGROV (ovarian cancer); format: cell-based, human; details: NCI-USA protocol
# From the text: (§1) The in-vitro cytotoxicity determined in terms of inhibition dose [ID50 ] of compounds having the formulae 8-11 prepared by the process of the present invention against […] different human cancer cell lines namely MCF7, EVSAT (Breast Cancer), WIDR (Colon Cancer), IGROV (Ovarian Cancer), M19MEL (Melanoma), A498 (Renal Cancer) and H226 (Nonsmall cell lung Cancer) have been measured following NCI-USA protocol [M. R. Boyd, "Status of the NCI preclinical antitumour drug discovery screen. Principles & practice of oncology 3, pp. 1-12 (1989)] alongwith the latest ID50 values of inorganic cancer drugs are presented in Table 1.
# [2] = tested on: M19MEL; assay: In-vitro cytotoxicity [ID50] against M19MEL (melanoma); format: cell-based, human; details: NCI-USA protocol
# From the text: as §1
# [3] = tested on: EVSAT; assay: In-vitro cytotoxicity [ID50] against EVSAT (breast cancer); format: cell-based, human; details: NCI-USA protocol
# From the text: as §1
# [4] = tested on: A498; assay: In-vitro cytotoxicity [ID50] against A498 (renal cancer); format: cell-based, human; details: NCI-USA protocol
# From the text: as §1
# [5] = tested on: WIDR; assay: In-vitro cytotoxicity [ID50] against WIDR (colon cancer); format: cell-based, human; details: NCI-USA protocol
# From the text: as §1
# [6] = tested on: MCF7; assay: In-vitro cytotoxicity [ID50] against MCF7 (breast cancer); format: cell-based, human; details: NCI-USA protocol
# From the text: as §1
# [7] = tested on: H226; assay: In-vitro cytotoxicity [ID50] against H226 (nonsmall cell lung cancer); format: cell-based, human; details: NCI-USA protocol
# From the text: as §1
# [8] = tested on: P388 lymphocytic leukemia; details: in words; literature; cited from earlier work
Compound,Anti-tumour activity [ID50] [1] [µg/mL],Anti-tumour activity [ID50] [2] [µg/mL],Anti-tumour activity [ID50] [3] [µg/mL],Anti-tumour activity [ID50] [4] [µg/mL],Anti-tumour activity [ID50] [5] [µg/mL],Anti-tumour activity [ID50] [6] [µg/mL],Anti-tumour activity [ID50] [7] [µg/mL],activity against P388 in mice [8]
"N.N.O=C([O-])C1(C(=O)[O-])CCC1.[Pt+2] [Carboplatin, reference compound]",2.4,5.5,4.5,18,3.5,10.5,25,
"N.N.[Cl][Pt][Cl] [cis-platin, reference compound]",0.227,0.78,0.92,1.2,1.55,1.4,3.158,
[Cl][Sn]([Cl])([c]1ccccc1)[CH]1CCCCC1 [cyclohexyl-(phenyl)tindichloride],,,,,,,,inhibition of P-388 in mice
bipyridine complex of dibenzyltindichloride [compound 11],0.08,0.32,0.15,0.16,0.8,0.12,0.35,
bis(imidazole) complex of dibenzyltindichloride [compound 10],3.2,1.5,0.4,1,3.2,0.7,1.3,
bis(indole) complex of dibenzyltindichloride [compound 8],0.11,0.4,0.15,0.2,0.85,0.15,0.2,
bis(thiophene) complex of dibenzyltindichloride [compound 9],0.05,0.25,0.13,0.11,0.55,0.068,0.4,
dibenzyl(phenanthroline)-tindichloride,,,,,,,,inactive
